This is an account of results in ChEMBL document CHEMBL1201862, “PubChem BioAssay data set” (2004).

Activity calls are given as the source filed them.

Test [1] concerns the target T1, Neuropeptide Y receptor type 1 (Homo sapiens, UniProt P25929).
T1 sequence (P25929 whole entry): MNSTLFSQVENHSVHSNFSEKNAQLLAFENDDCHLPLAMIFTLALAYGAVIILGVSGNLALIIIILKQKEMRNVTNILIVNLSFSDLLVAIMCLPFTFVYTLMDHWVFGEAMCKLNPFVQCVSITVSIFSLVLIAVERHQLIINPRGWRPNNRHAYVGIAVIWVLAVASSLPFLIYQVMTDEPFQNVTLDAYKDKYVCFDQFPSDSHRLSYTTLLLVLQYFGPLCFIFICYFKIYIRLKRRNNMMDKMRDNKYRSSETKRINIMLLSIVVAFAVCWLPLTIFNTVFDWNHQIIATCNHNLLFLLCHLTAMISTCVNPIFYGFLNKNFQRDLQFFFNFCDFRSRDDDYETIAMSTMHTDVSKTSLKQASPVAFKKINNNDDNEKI
Put plainly: NPY-Y1 receptor antagonist potency, dose response, cell-based (AID 1277). Type of test: functional.

Test [2] concerns the target Melanin-concentrating hormone receptor 1 (Homo sapiens, UniProt Q99705). As to the kind of experiment: Fluorescence-based counterscreen for antagonists of the G-protein coupled receptor 7 (GPR7): cell-based high throughput dose response assay to identify antagonists of the melanin-concentrating hormone receptor 1 (MCHR1). In kind it is functional.
In test [3] the target is T2, Neuropeptide Y receptor type 2 (Homo sapiens, UniProt P49146).
T2 sequence (P49146 whole entry): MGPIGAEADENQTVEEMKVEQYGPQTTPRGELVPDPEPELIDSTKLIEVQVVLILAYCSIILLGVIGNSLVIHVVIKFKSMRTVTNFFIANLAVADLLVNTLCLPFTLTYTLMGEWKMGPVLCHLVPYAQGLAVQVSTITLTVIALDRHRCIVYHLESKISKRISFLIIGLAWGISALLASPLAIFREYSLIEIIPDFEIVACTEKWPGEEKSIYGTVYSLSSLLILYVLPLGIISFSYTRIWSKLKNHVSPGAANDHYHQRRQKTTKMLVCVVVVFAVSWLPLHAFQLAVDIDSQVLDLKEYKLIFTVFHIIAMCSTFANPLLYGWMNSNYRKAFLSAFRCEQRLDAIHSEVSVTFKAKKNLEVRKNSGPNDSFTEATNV
Put plainly: NPY-Y2 antagonist potency, selectivity check, dose response, counter-screen for NPY-Y1 antagonist project, cell-based (AID 1278). Type of test: functional.

Test [4] has as its target Neuropeptides B/W receptor type 1 (Homo sapiens, UniProt P48145). Put plainly: Fluorescence-based dose response cell-based high throughput screening assay to identify antagonists of the G-protein coupled receptor 7 (GPR7). [Related pubchem assays: 1952 (Screening assay (GPR7 antagonists).), 1880 (Summary AID.)]. Type of test: functional.
Test [5] concerns HEK293. Put plainly: PMA/Ionomycin-induced IL-8 production in HEK293- NF-kB-Luc stable cells. [Related pubchem assays: 1299, 1295, 1375, 1287, 1281, 1293, 1291, 1289, 1280, 465, 1364, 1282, 1372, 1365, 1367, 1366, 1266, 1269, 1373, 1292, 1290, 1302, 1371, 1283, 1271, 1294, 1374, 1368, 1369 ]. Type of test: functional, cell-based. To be noted: Homo sapiens.
For test [6], the system named is HEK293. Put plainly: Cytotoxicity assay in HEK293 cells. [Related pubchem assays (depositor defined):AID1266, AID1269, AID1270, AID1271, AID1280, AID1281, AID1282, AID1283, AID1287, AID1289, AID1290, AID1291, AID1292, AID1293, AID1294, AID1295, AID1299, AID1302, AID1364, AID1365, AID1366, AID1367, AID1369, AID1370, AID1371, AID1372, AID1373, AID1374, AID1375, AID1384 …. In kind it is functional, cell-based. Conditions: Homo sapiens.

Test [7] concerns HEK293. As to the kind of experiment: TNF Induced NF-kB Luciferase in 293-NF-kB-Luc Stable Cells. [Related pubchem assays: 1266, 1299, 1269, 1373, 1292, 1290, 1302, 1371, 1283, 1270, 1295, 1271, 1375, 1294, 1374, 1281, 1293, 1291, 1289, 1280, 465, 1368, 1364, 1282, 1372, 1365, 1369, 1370, 1367, 1366 ]. Conditions: Homo sapiens. Type of test: functional, cell-based.
Test [8] has as its target Luciferin 4-monooxygenase (Photinus pyralis, UniProt P08659). Put plainly: In vitro luciferase assay using purified luciferase. [Related pubchem assays: 1299, 1270, 1295, 1375, 1287, 1281, 1293, 1291, 1289, 1280, 465, 1364, 1282, 1372, 1365, 1370, 1367, 1366, 1266, 1373, 1292, 1290, 1302, 1371, 1283, 1271, 1294, 1374, 1368, 1369 ].
For test [9], the system named is HEK293. Put plainly: cytotoxicity in HEK293T NF-kB-Luc cells, SAR follow-up, cytotoxicity control for NF-kB activator project, cell-based, resazurin fluorescence (AID 493251). In kind it is functional. To be noted: Homo sapiens.
In test [10] the test system is HEK293. Put plainly: PMA/Ionomycin induced NF-kB luciferase assay in 293- NF-kB-Luc stable cells. [Related pubchem assays: 1299, 1270, 1295, 1375, 1287, 1281, 1293, 1291, 1289, 1280, 465, 1364, 1282, 1372, 1365, 1370, 1367, 1366, 1269, 1373, 1292, 1290, 1302, 1371, 1283, 1271, 1294, 1374, 1368, 1369 ]. In kind it is functional, cell-based. To be noted: Homo sapiens.

Test [11] deals with HEK293. Put plainly: SAR Analysis of small molecule inhibitors of T-cell specific antigen receptor-induced NF-kB activation in a HEK-293T cell line using a luminescence assay - Set 2. [Related pubchem assays (depositor defined):AID435003, AID435012, AID489026]. Type of test: functional, cell-based. To be noted: Homo sapiens.
The test system of the next test is Jurkat. As to the kind of experiment: SAR Analysis of small molecule inhibitors of T-cell specific antigen receptor-induced NF-kB activation in a Jurkat cell line using a luminescence assay - Set 2. [Related pubchem assays (depositor defined):AID435003, AID435012, AID465]. In kind it is functional, cell-based. Conditions: Homo sapiens.
In test [12] the target is Lysosomal acid glucosylceramidase (Homo sapiens, UniProt P04062). As to the kind of experiment: Dose response cell-based high throughput screening assay to identify enhancers of beta-glucosidase activity. [Related pubchem assays: 784 ]. Type of test: functional.
The nature of test [13]: polyadenylation inhibitors in yeast reporter, dose response, luminescence, S. cerevisiae SKY197-pL101 (AID 2525). Type of test: functional, cell-based.
The nature of test [14]: Luminescence Cell-Based Dose Confirmation HTS to Identify Inhibitors of Polyadenylation. In kind it is functional.
For test [15], the target named is Polyadenylate-binding protein 1 (Homo sapiens, UniProt P11940). Put plainly: PABP poly(A) RNA binding inhibitors, primary screen, biochemical, fluorescence polarization, uHTS (AID 2014).
The target in test [16] is Eukaryotic translation initiation factor 4H (Homo sapiens, UniProt Q15056). As to the kind of experiment: human eIF4H binding inhibitors, primary screen, translation initiation inhibitor project, biochemical, uHTS, fluorescence polarization (AID 2012).
The target of the next test is Protein S100-A4 (Homo sapiens, UniProt P26447). Put plainly: S100A4-myosin IIA binding inhibitor potency, dose response, biochemical, fluorescence polarization, cherry-picked hits (AID 687001). Type of test: functional.
The nature of test [17]: A Cell Based Assay for the Identification of Probe candidate Compounds with Anti- Venezuelan Equine Encephalitis virus. [Related pubchem assays: 2409, 2419, 1621, 2238, 2405, 2024, 2065, 2402, 2414, 1635, 1650, 2244 ]. In kind it is functional.
In test [18] the test system is Vero. Put plainly: cytotoxicity of synthesized analogs in Vero 76, SAR follow-up, cytotoxicity control for West Nile virus antiviral project, Vero 76 cells (AID 2414). Conditions: Chlorocebus sabaeus. In kind it is functional.
Test [19] concerns Vero. Put plainly: cytotoxicity of synthesized analogs in Vero cells, SAR follow-up, cytotoxicity control for West Nile virus antiviral project, cell-based, set II (AID 2402). Type of test: functional. Conditions: Chlorocebus sabaeus.
For test [20], the target named is T3, Alkaline phosphatase, tissue-nonspecific isozyme (Homo sapiens, UniProt P05186).
T3 sequence (P05186 whole entry): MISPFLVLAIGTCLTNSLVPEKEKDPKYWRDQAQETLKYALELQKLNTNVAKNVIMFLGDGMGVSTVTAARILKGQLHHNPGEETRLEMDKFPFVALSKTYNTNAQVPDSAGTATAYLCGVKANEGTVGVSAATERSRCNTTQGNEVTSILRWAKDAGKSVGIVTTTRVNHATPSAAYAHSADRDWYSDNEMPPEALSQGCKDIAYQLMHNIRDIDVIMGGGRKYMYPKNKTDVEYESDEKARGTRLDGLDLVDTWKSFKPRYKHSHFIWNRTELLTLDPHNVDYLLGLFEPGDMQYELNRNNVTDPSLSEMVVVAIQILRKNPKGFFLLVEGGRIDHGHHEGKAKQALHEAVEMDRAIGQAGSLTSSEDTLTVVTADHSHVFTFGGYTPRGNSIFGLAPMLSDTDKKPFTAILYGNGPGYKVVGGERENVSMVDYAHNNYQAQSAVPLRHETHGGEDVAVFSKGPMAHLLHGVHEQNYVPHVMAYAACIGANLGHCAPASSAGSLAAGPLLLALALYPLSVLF

The target in test [21] is Peroxisome proliferator-activated receptor gamma/Nuclear receptor corepressor 2 (Homo sapiens, UniProt P37231+Q9Y618). Type of test: functional.
Test [22] deals with Photoreceptor-specific nuclear receptor (Homo sapiens, UniProt Q9Y5X4). Type of test: functional.
Chain of Photoreceptor-specific nuclear receptor (Q9Y5X4 whole entry): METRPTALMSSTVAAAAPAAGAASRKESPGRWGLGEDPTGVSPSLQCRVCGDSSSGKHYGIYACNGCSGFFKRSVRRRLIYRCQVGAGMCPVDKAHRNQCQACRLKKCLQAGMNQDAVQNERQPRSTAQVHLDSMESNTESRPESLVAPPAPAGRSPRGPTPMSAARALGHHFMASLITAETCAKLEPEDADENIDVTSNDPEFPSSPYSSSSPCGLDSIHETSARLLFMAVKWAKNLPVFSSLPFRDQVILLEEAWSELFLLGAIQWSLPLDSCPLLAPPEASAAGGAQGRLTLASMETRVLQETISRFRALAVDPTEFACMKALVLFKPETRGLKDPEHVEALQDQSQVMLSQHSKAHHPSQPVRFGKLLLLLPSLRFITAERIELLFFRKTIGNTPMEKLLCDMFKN

Chain of Polyadenylate-binding protein 1 (P11940 whole entry): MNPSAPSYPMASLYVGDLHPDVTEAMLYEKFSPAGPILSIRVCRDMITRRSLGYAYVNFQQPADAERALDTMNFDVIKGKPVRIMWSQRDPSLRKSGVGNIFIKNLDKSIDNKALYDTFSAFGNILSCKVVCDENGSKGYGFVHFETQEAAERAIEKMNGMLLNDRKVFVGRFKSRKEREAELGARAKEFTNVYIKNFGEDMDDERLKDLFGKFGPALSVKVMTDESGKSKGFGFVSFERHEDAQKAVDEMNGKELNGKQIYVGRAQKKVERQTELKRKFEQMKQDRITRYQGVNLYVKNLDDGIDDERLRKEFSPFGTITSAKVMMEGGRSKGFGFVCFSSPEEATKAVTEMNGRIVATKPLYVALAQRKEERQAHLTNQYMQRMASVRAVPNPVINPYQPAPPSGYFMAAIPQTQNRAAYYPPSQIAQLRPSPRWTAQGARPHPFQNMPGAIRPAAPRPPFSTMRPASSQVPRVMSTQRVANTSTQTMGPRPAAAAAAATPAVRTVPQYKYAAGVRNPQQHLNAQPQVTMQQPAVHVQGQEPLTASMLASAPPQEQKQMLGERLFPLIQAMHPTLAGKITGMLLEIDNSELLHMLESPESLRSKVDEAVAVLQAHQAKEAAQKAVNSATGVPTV
Chain of Melanin-concentrating hormone receptor 1 (Q99705 whole entry): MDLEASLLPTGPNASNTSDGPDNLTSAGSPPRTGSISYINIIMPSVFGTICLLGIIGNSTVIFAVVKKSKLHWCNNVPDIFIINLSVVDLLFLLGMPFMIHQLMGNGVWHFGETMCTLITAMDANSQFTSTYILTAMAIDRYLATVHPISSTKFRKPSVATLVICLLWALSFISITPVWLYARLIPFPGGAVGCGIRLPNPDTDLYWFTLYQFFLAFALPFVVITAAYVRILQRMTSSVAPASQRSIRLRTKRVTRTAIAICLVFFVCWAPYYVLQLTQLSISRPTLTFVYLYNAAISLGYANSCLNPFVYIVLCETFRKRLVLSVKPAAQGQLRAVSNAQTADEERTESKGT
Chain of Neuropeptides B/W receptor type 1 (P48145 whole entry): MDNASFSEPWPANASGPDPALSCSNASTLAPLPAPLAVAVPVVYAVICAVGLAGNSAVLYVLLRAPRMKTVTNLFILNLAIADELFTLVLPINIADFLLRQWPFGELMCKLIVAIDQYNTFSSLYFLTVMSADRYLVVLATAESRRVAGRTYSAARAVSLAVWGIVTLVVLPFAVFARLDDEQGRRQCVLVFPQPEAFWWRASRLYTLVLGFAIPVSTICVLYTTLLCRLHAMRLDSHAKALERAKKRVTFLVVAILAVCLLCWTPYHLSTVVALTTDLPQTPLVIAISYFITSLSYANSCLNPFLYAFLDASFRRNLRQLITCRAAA
Chain of Luciferin 4-monooxygenase (P08659 whole entry): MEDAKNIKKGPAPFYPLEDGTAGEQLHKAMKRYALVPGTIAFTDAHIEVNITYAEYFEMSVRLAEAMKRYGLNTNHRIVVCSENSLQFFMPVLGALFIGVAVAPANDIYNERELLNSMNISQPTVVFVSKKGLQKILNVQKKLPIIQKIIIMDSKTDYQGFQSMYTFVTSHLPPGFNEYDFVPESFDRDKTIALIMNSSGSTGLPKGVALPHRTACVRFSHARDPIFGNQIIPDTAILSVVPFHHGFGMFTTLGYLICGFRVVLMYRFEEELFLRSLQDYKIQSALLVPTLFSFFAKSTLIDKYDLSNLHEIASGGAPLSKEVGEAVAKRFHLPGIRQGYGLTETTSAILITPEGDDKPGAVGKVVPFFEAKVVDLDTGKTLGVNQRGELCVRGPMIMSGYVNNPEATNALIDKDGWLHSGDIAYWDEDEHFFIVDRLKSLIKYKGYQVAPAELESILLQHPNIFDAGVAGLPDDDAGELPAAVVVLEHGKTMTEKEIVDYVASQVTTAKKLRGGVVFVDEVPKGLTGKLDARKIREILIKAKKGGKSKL
Chain of Protein S100-A4 (P26447 whole entry): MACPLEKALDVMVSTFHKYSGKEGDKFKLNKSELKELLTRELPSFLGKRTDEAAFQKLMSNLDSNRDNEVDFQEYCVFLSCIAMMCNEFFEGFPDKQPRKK
Chain of Lysosomal acid glucosylceramidase (P04062 whole entry): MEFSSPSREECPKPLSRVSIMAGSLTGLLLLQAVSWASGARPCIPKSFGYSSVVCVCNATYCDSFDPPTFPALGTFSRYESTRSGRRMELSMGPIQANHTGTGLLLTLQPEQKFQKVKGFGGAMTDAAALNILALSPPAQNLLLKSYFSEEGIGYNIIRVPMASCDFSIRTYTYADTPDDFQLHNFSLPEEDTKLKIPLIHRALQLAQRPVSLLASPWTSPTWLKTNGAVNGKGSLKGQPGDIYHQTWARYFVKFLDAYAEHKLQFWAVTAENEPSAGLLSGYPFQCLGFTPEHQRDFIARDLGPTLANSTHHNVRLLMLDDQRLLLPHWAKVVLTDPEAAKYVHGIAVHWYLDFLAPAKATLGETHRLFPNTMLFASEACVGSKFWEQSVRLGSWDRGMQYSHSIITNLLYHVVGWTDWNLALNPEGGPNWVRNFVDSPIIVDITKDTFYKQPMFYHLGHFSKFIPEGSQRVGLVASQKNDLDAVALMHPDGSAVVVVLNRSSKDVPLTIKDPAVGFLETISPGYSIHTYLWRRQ

Consider `CC(NC(=O)Cn1c(NCCO)nc2ccccc21)C1CC2CCC1C2` (centres undefined), for which the concentration for half-maximal inhibition (IC50) is on record as > 35 µM (not active) in [1], > 43.8 µM (not active) in [2], > 35 µM (not active) in [3] and > 14.6 µM (not active) in test [4].

Take `CCOc1ccc(NC(=O)c2ccc([N+](=O)[O-])o2)cc1`: the concentration for a half-maximal effect (EC50) was > 8 µM (not active) with HEK293 [5]; > 8 µM (inactive) with HEK293 [6]; > 8 µM (not active) with HEK293 [7]; > 8 µM (not active) in test [8]; 2.77 µM (active) in the test on HEK293 [10]. In addition, the figures for the IC50 with HEK293 [9], in the test with HEK293 [11] and in the test on Jurkat were 50.6 µM (inactive), 39.9 µM (inactive) and 38.9 µM (inactive), respectively.

Take `NC(=NO)c1nc(N2CCCCC2)nc(N2CCCCC2)n1`: the concentration giving a half-maximal response (EC50) in test [12] is on record as > 50 µM (not active).

As for `O=C(COC(=O)Cc1ccc(S(=O)(=O)N2CCOCC2)s1)NCc1ccc(Cl)cc1`, the EC50 is > 500 µM (not active) in test [13] and 99.6 µM (active) in test [14].

Take `Cc1cc2cc(CNC(=O)Nc3ccc(Cl)c(Cl)c3)ccc2n1C`: the IC50 in test [15] is 4.53 µM (active); in test [16], 5.7 µM (active). The AC50 at Protein S100-A4 is 1.74 µM (active).

Regarding `Cc1ccc2nc(SCC(=O)Nc3ccc4c(c3)CCC4)n(-c3ccccc3)c(=O)c2c1`, the 50% inhibitory concentration (IC50) in test [17] was 7.73 µM (active). Also, the cytotoxic concentration (CC50) was 130 µM (active) with Vero [18] and > 200 µM (active) in the test with Vero [19].

For `Cn1c(=O)c2c(nc(N/N=C/c3ccco3)n2C)n(C)c1=O`, in test [20], the half-maximal effective concentration (EC50) was 88.9 µM (not active).

Regarding `Cc1ccccc1CNc1ncnc2cc(Cl)ccc12`, the IC50 in [21] is 2.38 µM (active); in test [22], 3.84 µM (active).
